In ChEMBL document CHEMBL3885861, “Open TG-GATES”:

Organism: Rattus norvegicus
Test: Open TG-GATES - Regimen: Daily Repeat
Format: toxicity, organism-based, Sprague-Dawley
Set-up: regimen Daily Repeat, gender Male, age 6 weeks
Details: in vivo, po, 100 mg/kg, route gavage, dose level Low; for APTT / Bas / Eos / Fbg / Hb / Ht / Lym / MCH / MCHC / MCV / Mono / Neu / PT / Plat / RBC / Ret / WBC: tissue Blood; for KIDNEY_L / KIDNEY_R / KIDNEY_TOTAL: tissue Kidney; for LIVER: tissue Liver; for A/G / ALP / ALT / AST / BUN / CRE / Ca / Cl / DBIL / GLC / IP / LDH / Na / PL / RALB / TBIL / TC / TG / TP / gamma-GTP: tissue Plasma

SMILES: NC(N)=Nc1nc(CSCCC(N)=NS(N)(=O)=O)cs1 [FAMOTIDINE]
- TERMINAL_BW (72 h, time 3 day): 224.5 g
- APTT (72 h, time 3 day): 19.8 s
- Bas (72 h, time 3 day): 0%
- Eos (72 h, time 3 day): 1%
- Fbg (72 h, time 3 day): 225.2 mg/dL
- Hb (72 h, time 3 day): 13.3 g/dL
- Ht (72 h, time 3 day): 37.3%
- Lym (72 h, time 3 day): 78.4%
- MCH (72 h, time 3 day): 22.1 pg
- MCHC (72 h, time 3 day): 35.6%
- MCV (72 h, time 3 day): 62.1 fL
- Mono (72 h, time 3 day): 2.6%
- Neu (72 h, time 3 day): 15.6%
- PT (72 h, time 3 day): 12 s
- Plat (72 h, time 3 day): 124.1 x10_4/uL
- RBC (72 h, time 3 day): 600.6 x10_4/ul
- Ret (72 h, time 3 day): 5.7%
- WBC (72 h, time 3 day): 87.5 x10_2/uL
- KIDNEY_L (72 h, time 3 day): 1 g
- KIDNEY_R (72 h, time 3 day): 1 g
- KIDNEY_TOTAL (72 h, time 3 day): 2 g
- LIVER (72 h, time 3 day): 10.2 g
- A/G (72 h, time 3 day): 1.6
- ALP (72 h, time 3 day): 1126.4 IU/L
- ALT (72 h, time 3 day): 30.2 IU/L
- AST (72 h, time 3 day): 63.6 IU/L
- BUN (72 h, time 3 day): 16.6 mg/dL
- CRE (72 h, time 3 day): 0.4 mg/dL
- Ca (72 h, time 3 day): 10.7 mg/dL
- Cl (72 h, time 3 day): 102.8 meq/L
- DBIL (72 h, time 3 day): 0.086 mg/dL
- GLC (72 h, time 3 day): 190.4 mg/dL
- IP (72 h, time 3 day): 7.2 mg/dL
- LDH (72 h, time 3 day): 190.6 IU/L
- Na (72 h, time 3 day): 139 meq/L
- PL (72 h, time 3 day): 136.8 mg/dL
- RALB (72 h, time 3 day): 3.3 g/dL
- TBIL (72 h, time 3 day): 0.1 mg/dL
- TC (72 h, time 3 day): 73.8 mg/dL
- TG (72 h, time 3 day): 63.2 mg/dL
- TP (72 h, time 3 day): 5.5 g/dL
- gamma-GTP (72 h, time 3 day): 1.2 IU/L
- TERMINAL_BW ([…], time 7 day): 259.3 g
- TERMINAL_BW ([…], time 14 day): 310.4 g
- TERMINAL_BW ([…], time 28 day): 389.2 g
- APTT ([…], time 7 day): 20.9 s
- Bas ([…], time 7 day): 0%
- Eos ([…], time 7 day): 1%
- Fbg ([…], time 7 day): 217.6 mg/dL
- Hb ([…], time 7 day): 13.5 g/dL
- Ht ([…], time 7 day): 37.6%
- Lym ([…], time 7 day): 78.6%
- MCH ([…], time 7 day): 22 pg
- MCHC ([…], time 7 day): 35.9%
- MCV ([…], time 7 day): 61.5 fL
- Mono ([…], time 7 day): 2.8%
- Neu ([…], time 7 day): 16.4%
- PT ([…], time 7 day): 12.1 s
- Plat ([…], time 7 day): 116.2 x10_4/uL
- RBC ([…], time 7 day): 612 x10_4/ul
- Ret ([…], time 7 day): 5.2%
- WBC ([…], time 7 day): 95.1 x10_2/uL
- APTT ([…], time 14 day): 22.2 s
- Bas ([…], time 14 day): 0%
- Eos ([…], time 14 day): 0.6%
- Fbg ([…], time 14 day): 217.4 mg/dL
- Hb ([…], time 14 day): 14.4 g/dL
- Ht ([…], time 14 day): 41.5%
- Lym ([…], time 14 day): 77.4%
- MCH ([…], time 14 day): 20.9 pg
- MCHC ([…], time 14 day): 34.8%
- MCV ([…], time 14 day): 60 fL
- Mono ([…], time 14 day): 2.4%
- Neu ([…], time 14 day): 17.8%
- PT ([…], time 14 day): 12.6 s
- Plat ([…], time 14 day): 111.6 x10_4/uL
- RBC ([…], time 14 day): 691.8 x10_4/ul
- Ret ([…], time 14 day): 4%
- WBC ([…], time 14 day): 94.5 x10_2/uL
- APTT ([…], time 28 day): 21.5 s
- Bas ([…], time 28 day): 0%
- Eos ([…], time 28 day): 1.6%
- Fbg ([…], time 28 day): 219.4 mg/dL
- Hb ([…], time 28 day): 15.5 g/dL
- Ht ([…], time 28 day): 43.7%
- Lym ([…], time 28 day): 81.2%
- MCH ([…], time 28 day): 19.4 pg
- MCHC ([…], time 28 day): 35.5%
- MCV ([…], time 28 day): 54.9 fL
- Mono ([…], time 28 day): 1.6%
- Neu ([…], time 28 day): 14.2%
- PT ([…], time 28 day): 12.8 s
- Plat ([…], time 28 day): 96.6 x10_4/uL
- RBC ([…], time 28 day): 796 x10_4/ul
- Ret ([…], time 28 day): 2.2%
- WBC ([…], time 28 day): 90.2 x10_2/uL
- KIDNEY_L ([…], time 7 day): 1.1 g
- KIDNEY_R ([…], time 7 day): 1.1 g
- KIDNEY_TOTAL ([…], time 7 day): 2.2 g
- KIDNEY_L ([…], time 14 day): 1.2 g
- KIDNEY_R ([…], time 14 day): 1.2 g
- KIDNEY_TOTAL ([…], time 14 day): 2.5 g
- KIDNEY_L ([…], time 28 day): 1.3 g
- KIDNEY_R ([…], time 28 day): 1.4 g
- KIDNEY_TOTAL ([…], time 28 day): 2.7 g
- LIVER ([…], time 7 day): 12.4 g
- LIVER ([…], time 14 day): 13.4 g
- LIVER ([…], time 28 day): 15.7 g
- A/G ([…], time 7 day): 1.5
- ALP ([…], time 7 day): 940.8 IU/L
- ALT ([…], time 7 day): 30.4 IU/L
- AST ([…], time 7 day): 67 IU/L
- BUN ([…], time 7 day): 16.4 mg/dL
- CRE ([…], time 7 day): 0.4 mg/dL
- Ca ([…], time 7 day): 10.7 mg/dL
- Cl ([…], time 7 day): 103 meq/L
- DBIL ([…], time 7 day): 0.098 mg/dL
- GLC ([…], time 7 day): 182.8 mg/dL
- IP ([…], time 7 day): 7 mg/dL
- LDH ([…], time 7 day): 205.2 IU/L
- Na ([…], time 7 day): 140.8 meq/L
- PL ([…], time 7 day): 151 mg/dL
- RALB ([…], time 7 day): 3.4 g/dL
- TBIL ([…], time 7 day): 0.2 mg/dL
- TC ([…], time 7 day): 78.6 mg/dL
- TG ([…], time 7 day): 98.2 mg/dL
- TP ([…], time 7 day): 5.6 g/dL
- gamma-GTP ([…], time 7 day): 1.2 IU/L
- A/G ([…], time 14 day): 1.5
- ALP ([…], time 14 day): 918.4 IU/L
- ALT ([…], time 14 day): 38 IU/L
- AST ([…], time 14 day): 64.4 IU/L
- BUN ([…], time 14 day): 15.2 mg/dL
- CRE ([…], time 14 day): 0.5 mg/dL
- Ca ([…], time 14 day): 10.5 mg/dL
- Cl ([…], time 14 day): 104 meq/L
- DBIL ([…], time 14 day): 0.096 mg/dL
- GLC ([…], time 14 day): 196.2 mg/dL
- IP ([…], time 14 day): 7 mg/dL
- LDH ([…], time 14 day): 181 IU/L
- Na ([…], time 14 day): 140.6 meq/L
- PL ([…], time 14 day): 141.2 mg/dL
- RALB ([…], time 14 day): 3.3 g/dL
- TBIL ([…], time 14 day): 0.2 mg/dL
- TC ([…], time 14 day): 67 mg/dL
- TG ([…], time 14 day): 111.4 mg/dL
- TP ([…], time 14 day): 5.6 g/dL
- gamma-GTP ([…], time 14 day): 1.6 IU/L
- A/G ([…], time 28 day): 1.3
- ALP ([…], time 28 day): 577.4 IU/L
- ALT ([…], time 28 day): 31.8 IU/L
- AST ([…], time 28 day): 59.6 IU/L
- BUN ([…], time 28 day): 15.8 mg/dL
- CRE ([…], time 28 day): 0.6 mg/dL
- Ca ([…], time 28 day): 9.9 mg/dL
- Cl ([…], time 28 day): 103.4 meq/L
- DBIL ([…], time 28 day): 0.074 mg/dL
- GLC ([…], time 28 day): 241.8 mg/dL
- IP ([…], time 28 day): 7.1 mg/dL
- LDH ([…], time 28 day): 132.8 IU/L
- Na ([…], time 28 day): 140.8 meq/L
- PL ([…], time 28 day): 121.2 mg/dL
- RALB ([…], time 28 day): 3.3 g/dL
- TBIL ([…], time 28 day): 0.1 mg/dL
- TC ([…], time 28 day): 57.8 mg/dL
- TG ([…], time 28 day): 91 mg/dL
- TP ([…], time 28 day): 5.9 g/dL
- gamma-GTP ([…], time 28 day): 1.2 IU/L
